Source: patent publication US4855316A (priority 1988, dated 1989)

What was measured:
[1] = standard rat paw pressure analgesia test; type: in vivo; conditions: i.v.
Description: The ED50 doses for several representative compounds of this invention in the standard rat paw pressure analgesia test are presented in Table 1.

[2] = molecular target: T1, mu opioid receptor (Cavia porcellus, UniProt A0ACM8Q262); assay: mu opioid receptor binding: tritiated DAGO in guinea pig brain homogenates; conditions: read-out: Opoid Binding Mu Ki; guinea pig brain homogenate, [3H]DAGO, 150 minutes, 0° C.
T1 construct: full-length wild-type receptor
T1 sequence (A0ACM8Q262 1-400): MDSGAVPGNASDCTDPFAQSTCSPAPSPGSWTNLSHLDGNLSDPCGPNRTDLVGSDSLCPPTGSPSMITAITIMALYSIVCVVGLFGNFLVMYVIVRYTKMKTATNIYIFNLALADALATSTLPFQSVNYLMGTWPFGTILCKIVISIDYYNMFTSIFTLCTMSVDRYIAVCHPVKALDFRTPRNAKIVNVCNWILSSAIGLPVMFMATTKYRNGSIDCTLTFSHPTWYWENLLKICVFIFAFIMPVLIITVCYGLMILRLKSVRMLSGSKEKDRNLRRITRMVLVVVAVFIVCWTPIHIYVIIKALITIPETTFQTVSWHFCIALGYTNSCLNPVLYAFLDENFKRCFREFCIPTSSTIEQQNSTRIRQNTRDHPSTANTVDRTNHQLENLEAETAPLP

Row | SMILES | Rat Paw Pressure MPE50 [1] | Ki [2]
1 | CO[C@H]1C[C@@H](N2CCCC2)[C@H](N(C)C(=O)Cc2ccc(Cl)c(Cl)c2)C[C@H]1OC (relative stereo) [Compound 6] | 5.2 mg·kg | 
2 | CO[C@H]1C[C@@H](N2CCCC2)[C@H](N(C)C(=O)COc2cc(C)c(Cl)c(C)c2)C[C@H]1OC (relative stereo) [Compound 3] | > 10 mg·kg | 720 nM
3 | CO[C@H]1C[C@@H](N2CCCC2)[C@H](N(C)C(=O)Cc2cccc3ccccc23)C[C@H]1OC (relative stereo) [Compound 5] | 1.7 mg·kg | 
4 | CO[C@H]1C[C@@H](N2CCCC2)[C@H](N(C)C(=O)COc2ccc(Cl)c(Cl)c2)C[C@H]1OC (relative stereo) [Compound 4] | > 10 mg·kg | 1100 nM
5 | CO[C@H]1C[C@@H](N2CCCC2)[C@H](N(C)C(=O)COc2cccc(F)c2)C[C@H]1OC (relative stereo) [Compound 9, N-[4,5-Dimethoxy-2-(1-pyrrolidinyl)cyclohexyl]-2-(3-fluorophenoxy)-N-methylacetamide] |  | 1100 nM
6 | CO[C@H]1C[C@@H](N2CCCC2)[C@H](N(C)C(=O)CC2c3ccccc3-c3ccccc32)C[C@H]1OC (relative stereo) [Compound 7] |  | 273 nM
7 | CO[C@H]1C[C@@H](N2CCCC2)[C@H](N(C)C(=O)COc2cc(C)c(Cl)c(C)c2Cl)C[C@H]1OC (relative stereo) [Compound 8] |  | 700 nM
